The values that follow come from PMC12524942, “Efficient Hydrolysis of Dichlorvos in Water by Stenotrophomonas acidaminiphila G1 and Methyl Parathion Hydrolase” (International Journal of Molecular Sciences, 2025).

In the assay the target is T1, MPD (methyl parathion hydrolase) (Stenotrophomonas sp. YC-1, UniProt Q0PWQ4).
T1 construct: full ORF (primers from […] to stop; locus Chr1:1174990-1175985, 996 bp), pET28a EcoRI/HindIII, His tag, E. coli BL21(DE3); 331 residues per monomer
Briefly: UPLC of residual DDVP, Michaelis-Menten fit. It is filed as biochemical. The settings on record: 37 °C, 1 min; DDVP 0.01 to 0.04 mM; enzyme refolded from urea.

Structures are written as SMILES.

T1 sequence (Q0PWQ4 entry or part of it): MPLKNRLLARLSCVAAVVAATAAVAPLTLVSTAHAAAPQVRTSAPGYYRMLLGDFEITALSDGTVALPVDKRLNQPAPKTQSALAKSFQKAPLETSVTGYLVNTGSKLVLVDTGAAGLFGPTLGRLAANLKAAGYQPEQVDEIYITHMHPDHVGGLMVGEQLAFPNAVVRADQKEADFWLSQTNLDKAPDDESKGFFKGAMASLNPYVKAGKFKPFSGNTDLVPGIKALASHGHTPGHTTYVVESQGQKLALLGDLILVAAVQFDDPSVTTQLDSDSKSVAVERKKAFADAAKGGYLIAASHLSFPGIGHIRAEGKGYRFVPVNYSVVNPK

As for `COP(=O)(OC)OC=C(Cl)Cl` [DDVP, Dichlorvos], the Km is 99 µM.

One may read the Km as the concentration of substrate that gives half-maximal velocity.
